Measurements: patent publication US11850277B2, “Treatment of lower urinary tract epithelium with glucagon like peptide 2” (URIGEN N.A., priority 2017, dated 2023)

Columns and labels:
[1] = phase IIB study; cited from earlier work
[2] = test system: non-tumorigenic primary human bladder epithelial cells (ATCC-PCS-420-010); assay: BrdU cell proliferation assay (BrdU incorporation into DNA); assay type: cell-based; details: cells starved 48 hours in low nutrient (0.5%) medium; for DNA synthesis as measured by BrdU incorporation: BrdU added concurrently
Procedure: FIG. 1 presents a histogram plot depicting results from a BrdU cell proliferation assay. Primary human bladder epithelial cells were nutrient starved as indicated and treated with GLP-2 for 24 hours at the indicated concentrations
FIG. 2 presents a histogram plot depicting results from a BrdU cell proliferation assay. Primary human bladder epithelial cells were nutrient starved as indicated and treated with GLP-2 for 48 hours at the indicated concentrations.
URG-801/GLP-2 mediated cell proliferation was detected by assaying BrdU incorporation into DNA using non-tumorigenic primary human bladder epithelial cells. An exemplary non-tumorigenic primary human bladder epithelial cell line is ATCC-PCS-420-010, which may be purchased from the American Type Culture Collection (ATCC) repository. Briefly, ATCC-PCS-420-010 cells were starved for 48 hours in low nutrient (0.5%) medium and then GLP-2 was added to the culture medium at the indicated concentrations and the cells were cultured for an additional 24 hours in the presence of GLP-2. As indicated in the timeline presented in FIG. 1, bromodeoxyuridine (BrdU) was added concurrently with the GLP-2.
To investigate further parameters affecting GLP-2 induced bladder epithelial cell proliferation, the duration of culturing in the presence of GLP-2 was extended. In this experimental protocol, ATCC-PCS-420-010 cells were starved for 48 hours in low nutrient (0.5%) medium and then GLP-2 was added to the culture medium at the indicated concentrations and the cells were cultured for ab additional 48 hours in the presence of GLP-2. As indicated in the timeline presented in FIG. 2, BrdU was added concurrently with the GLP-2.

[3] = target: T1, GLP-2R (Rattus norvegicus, UniProt Q9Z0W0); details: iv injected radiolabeled GLP-2, autoradiography; cited from earlier work
T1 construct: host or cells: Tissues of the living animal (kidneys, liver, gastrointestinal tract and others), endogenous receptor
T1 sequence (Q9Z0W0 1-550): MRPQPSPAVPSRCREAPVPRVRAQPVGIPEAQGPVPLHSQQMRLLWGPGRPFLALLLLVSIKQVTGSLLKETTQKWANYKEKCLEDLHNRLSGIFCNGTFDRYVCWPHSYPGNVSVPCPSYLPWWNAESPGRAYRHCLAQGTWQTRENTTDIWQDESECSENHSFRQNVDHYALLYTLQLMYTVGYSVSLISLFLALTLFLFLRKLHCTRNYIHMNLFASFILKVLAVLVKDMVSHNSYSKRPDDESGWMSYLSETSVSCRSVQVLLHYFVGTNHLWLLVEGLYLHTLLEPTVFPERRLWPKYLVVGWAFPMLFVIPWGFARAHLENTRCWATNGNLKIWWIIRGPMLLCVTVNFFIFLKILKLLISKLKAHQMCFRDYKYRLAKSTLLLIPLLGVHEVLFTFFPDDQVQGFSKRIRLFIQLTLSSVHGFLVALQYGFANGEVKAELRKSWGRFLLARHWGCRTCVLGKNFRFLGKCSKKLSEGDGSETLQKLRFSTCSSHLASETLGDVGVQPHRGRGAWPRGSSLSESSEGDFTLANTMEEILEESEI

[4] = test system: intestinal epithelium; details: normal and treated rat inflammatory bowel disease models and ischemic reperfusion injured mice; cited from earlier work
[5] = in vivo; cited from earlier work
[6] = then cultured 48 hours with GLP-2, FIG. 2

Substance | efficacy in chemotherapy-induced diarrhea [1] | DNA synthesis as measured by BrdU incorporation ([2]; then cultured 24 hours with GLP-2, FIG. 1) | DNA synthesis as measured by BrdU incorporation [2, 6] | GLP-2 concentration at which BrdU incorporation peaked (bell shaped curve) [2, 6] [µM] | binding to submandibular gland, lung, brain, heart, adipose tissue, skeletal muscle, uterus, ovary, urinary bladder, adrenal gland, thyroid gland, or skin [3] | tissues to which radiolabeled GLP-2 binds [3] | effect on intestinal/mucosal mass and damage [4] | half life in circulation [5] [min]
elsiglutide | failed to reach statistical significance | – | – | – | – | – | – | –
HADGSFSDEMNTILDNLAARDFINWLIQTKITD [GLP-2] | – | dose dependent increase in DNA synthesis | dose dependent increase in DNA synthesis | 0.1 | does not bind | binds predominantly to the kidneys, liver, and gastrointestinal tract | enhanced intestinal/mucosal mass and attenuated damage | 3 to 7
